Drawing on ChEMBL document CHEMBL1201862, “PubChem BioAssay data set” (2004), this text covers AC50, IC50 and EC50 for five molecules.

Calls of active or inactive are those of the source.

The target of one assay is Cytochrome P450 2D6 (Homo sapiens, UniProt P10635).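 Further: CYP2D6 member of a cytochrome P450 panel assay.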
The target of assay [1] is Adenosylmethionine-8-amino-7-oxononanoate aminotransferase (Mycobacterium tuberculosis, UniProt P9WQ81). The assay can be described thus: Mycobacterium tuberculosis BioA enzyme inhibitor Measured in Biochemical System Using Plate Reader - 2163-02_Inhibitor_Dose_CherryPick_Activity. It is filed as functional, Mycobacterium tuberculosis UT205.
A further assay concerns the target T1, Cytochrome P450 1A2 (Homo sapiens, UniProt P05177).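 Further: PubChem cytochrome P450 panel assay, CYP1A2 panel member.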
T1 sequence (P05177 whole entry): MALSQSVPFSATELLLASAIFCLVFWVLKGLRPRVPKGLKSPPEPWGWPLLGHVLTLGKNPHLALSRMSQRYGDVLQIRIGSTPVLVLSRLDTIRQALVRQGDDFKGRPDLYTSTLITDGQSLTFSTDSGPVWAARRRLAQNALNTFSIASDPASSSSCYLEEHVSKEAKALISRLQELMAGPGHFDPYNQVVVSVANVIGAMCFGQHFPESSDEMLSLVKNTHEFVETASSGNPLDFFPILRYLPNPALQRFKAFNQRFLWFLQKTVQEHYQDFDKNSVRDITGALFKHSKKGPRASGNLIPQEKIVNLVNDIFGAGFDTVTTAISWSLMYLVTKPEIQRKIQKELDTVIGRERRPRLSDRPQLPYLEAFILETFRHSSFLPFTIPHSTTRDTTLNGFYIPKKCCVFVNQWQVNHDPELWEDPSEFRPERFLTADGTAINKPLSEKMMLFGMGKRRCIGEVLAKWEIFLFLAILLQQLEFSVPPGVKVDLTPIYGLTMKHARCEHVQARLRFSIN

The next assay addresses Cytochrome P450 3A4 (Homo sapiens, UniProt P08684).
Assay [2] has as its target T2, Interleukin-8 (Homo sapiens, UniProt P10145).
T2 sequence (P10145 whole entry): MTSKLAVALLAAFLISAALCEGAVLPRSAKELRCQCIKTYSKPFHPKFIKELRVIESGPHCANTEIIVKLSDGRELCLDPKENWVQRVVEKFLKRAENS
Nature of the assay: Dose Response confirmation of uHTS small molecule hits for cystic fibrosis induced NFkb Inhibitors in a PAF-induced IL8 counterscreen. To be noted: read-out: IC50_Mean. The class given is functional.

A short description of assay [3]: control 3'UTR Renilla luciferase suppression, dose response, counter-screen for Shn3 inhibitor project, cell-based, Clone20-Shn3RL, cherry-picked (AID 624133). The class given is functional. Background: The purpose of a counterscreen is to sort out artefacts and off-target activity.
A further assay has as its target Mu-type opioid receptor (Homo sapiens, UniProt P35372). It is filed as functional, cell-based.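 Further: U2OS cells with beta-arrestin recruitment to OPRM1 by beta-gal complementation.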
Assay [4] concerns the target 5-hydroxytryptamine receptor 2A (Mus musculus, UniProt P35363). The class given is functional, cell-based.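 Further: CHO-K1 cells with tagged receptor and beta-arrestin; agonist potency measured as compound-induced activation of the receptor.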
The subject of another assay is HEK293. Nature of the assay: inhibitors of LMP1-driven NF-kB reporter, dose response, cell-based, HEK293, luciferase, cherry-pick (AID 588343). The class given is functional. To be noted: Homo sapiens.
The nature of assay [5]: Shn3 3'UTR reporter inhibitors, dose response, cell-based, Clone20 osteoblasts, firefly luciferase, cherry-picked (AID 624132).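 Further: firefly luciferase luminescence from reporter carrying the Shn3 3'UTR in osteoblasts.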 It is filed as functional.
A short description of assay [6]: HepG2 cell cytotoxicity, dose response, cytotoxicity control for Shn3 inhibitor project, CellTiter-Glo, cherry-picked (AID 624134). The class given is functional, cell-based.
In assay [7] the target is T3, Fatty acid synthase (Homo sapiens, UniProt P49327). Nature of the assay: FAS thioesterase domain inhibitors, dose response, biochemical, kinetic fluorescence intensity (AID 624326).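 Further: rate of fluorescence rise from hydrolysis of a fluorogenic O-methyl fluorescein ester substrate.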 It is filed as functional.
The target of assay [8] is T3, Fatty acid synthase. The assay can be described thus: FAS thioesterase domain inhibitors, dose response, biochemical, endpoint fluorescence intensity, uHTS hits (AID 624327).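 Further: fluorescence from hydrolysis of an O-methyl fluorescein acyl ester substrate by the enzyme.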 It is filed as functional.
Assay [9] concerns the target T2, Interleukin-8. Nature of the assay: Dose Response confirmation of uHTS small molecule hits for cystic fibrosis induced NFkb Inhibitors in a TNFa-induced IL8 counterscreen. The class given is functional. The following applies: read-out: IC50_Mean.
In assay [10] the target is Benomyl/methotrexate resistance protein (Candida albicans, UniProt P28873). Nature of the assay: CaMdr1 efflux pump inhibitor potency, dose response, singleplex, Cherry Pick1 hits (AID 588608). The class given is functional.
Another assay concerns the target Melanocortin receptor 4 (Homo sapiens, UniProt P32245). Nature of the assay: MC4R antagonist potency on cAMP, dose response, cell-based, TR-FRET, biased antagonists (AID 602298).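 Further: antagonist potency against agonist-stimulated cAMP production.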 It is filed as functional. In general terms: In TR-FRET formats the signal depends on donor and acceptor labels being close together.
A short description of assay [11]: nonselective inhibitors of cellular cAMP signaling, dose response, counter-screen for MC4R biased antagonist project, cell-based, TR-FRET cAMP detection (AID 602305).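 Further: U2OS cells stimulated with forskolin near its EC80 as the cAMP inducer; potency is for inhibition of forskolin-stimulated cAMP signaling.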 It is filed as functional.
For assay [12], the target named is Mitochondrial peptide methionine sulfoxide reductase (Bos taurus, UniProt P54149). The class given is functional.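 Further: absorbance read-out, biochemical high-throughput dose-response screen for MsrA inhibitors, confirmatory; recombinant bovine MsrA coupled to E. coli TrxB with NADPH and selenocystamine; potency is for inhibitors of MsrA activity on DMSO substrate.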
Sequence of Mitochondrial peptide methionine sulfoxide reductase (P54149 whole entry): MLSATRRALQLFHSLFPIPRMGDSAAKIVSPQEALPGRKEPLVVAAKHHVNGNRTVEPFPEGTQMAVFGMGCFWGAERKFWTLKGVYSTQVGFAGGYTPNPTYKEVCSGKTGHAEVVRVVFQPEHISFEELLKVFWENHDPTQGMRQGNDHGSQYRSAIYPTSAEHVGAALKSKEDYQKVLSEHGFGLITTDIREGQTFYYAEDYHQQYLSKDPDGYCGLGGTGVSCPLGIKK

T3 sequence (P49327 whole entry, the tested form may be a part): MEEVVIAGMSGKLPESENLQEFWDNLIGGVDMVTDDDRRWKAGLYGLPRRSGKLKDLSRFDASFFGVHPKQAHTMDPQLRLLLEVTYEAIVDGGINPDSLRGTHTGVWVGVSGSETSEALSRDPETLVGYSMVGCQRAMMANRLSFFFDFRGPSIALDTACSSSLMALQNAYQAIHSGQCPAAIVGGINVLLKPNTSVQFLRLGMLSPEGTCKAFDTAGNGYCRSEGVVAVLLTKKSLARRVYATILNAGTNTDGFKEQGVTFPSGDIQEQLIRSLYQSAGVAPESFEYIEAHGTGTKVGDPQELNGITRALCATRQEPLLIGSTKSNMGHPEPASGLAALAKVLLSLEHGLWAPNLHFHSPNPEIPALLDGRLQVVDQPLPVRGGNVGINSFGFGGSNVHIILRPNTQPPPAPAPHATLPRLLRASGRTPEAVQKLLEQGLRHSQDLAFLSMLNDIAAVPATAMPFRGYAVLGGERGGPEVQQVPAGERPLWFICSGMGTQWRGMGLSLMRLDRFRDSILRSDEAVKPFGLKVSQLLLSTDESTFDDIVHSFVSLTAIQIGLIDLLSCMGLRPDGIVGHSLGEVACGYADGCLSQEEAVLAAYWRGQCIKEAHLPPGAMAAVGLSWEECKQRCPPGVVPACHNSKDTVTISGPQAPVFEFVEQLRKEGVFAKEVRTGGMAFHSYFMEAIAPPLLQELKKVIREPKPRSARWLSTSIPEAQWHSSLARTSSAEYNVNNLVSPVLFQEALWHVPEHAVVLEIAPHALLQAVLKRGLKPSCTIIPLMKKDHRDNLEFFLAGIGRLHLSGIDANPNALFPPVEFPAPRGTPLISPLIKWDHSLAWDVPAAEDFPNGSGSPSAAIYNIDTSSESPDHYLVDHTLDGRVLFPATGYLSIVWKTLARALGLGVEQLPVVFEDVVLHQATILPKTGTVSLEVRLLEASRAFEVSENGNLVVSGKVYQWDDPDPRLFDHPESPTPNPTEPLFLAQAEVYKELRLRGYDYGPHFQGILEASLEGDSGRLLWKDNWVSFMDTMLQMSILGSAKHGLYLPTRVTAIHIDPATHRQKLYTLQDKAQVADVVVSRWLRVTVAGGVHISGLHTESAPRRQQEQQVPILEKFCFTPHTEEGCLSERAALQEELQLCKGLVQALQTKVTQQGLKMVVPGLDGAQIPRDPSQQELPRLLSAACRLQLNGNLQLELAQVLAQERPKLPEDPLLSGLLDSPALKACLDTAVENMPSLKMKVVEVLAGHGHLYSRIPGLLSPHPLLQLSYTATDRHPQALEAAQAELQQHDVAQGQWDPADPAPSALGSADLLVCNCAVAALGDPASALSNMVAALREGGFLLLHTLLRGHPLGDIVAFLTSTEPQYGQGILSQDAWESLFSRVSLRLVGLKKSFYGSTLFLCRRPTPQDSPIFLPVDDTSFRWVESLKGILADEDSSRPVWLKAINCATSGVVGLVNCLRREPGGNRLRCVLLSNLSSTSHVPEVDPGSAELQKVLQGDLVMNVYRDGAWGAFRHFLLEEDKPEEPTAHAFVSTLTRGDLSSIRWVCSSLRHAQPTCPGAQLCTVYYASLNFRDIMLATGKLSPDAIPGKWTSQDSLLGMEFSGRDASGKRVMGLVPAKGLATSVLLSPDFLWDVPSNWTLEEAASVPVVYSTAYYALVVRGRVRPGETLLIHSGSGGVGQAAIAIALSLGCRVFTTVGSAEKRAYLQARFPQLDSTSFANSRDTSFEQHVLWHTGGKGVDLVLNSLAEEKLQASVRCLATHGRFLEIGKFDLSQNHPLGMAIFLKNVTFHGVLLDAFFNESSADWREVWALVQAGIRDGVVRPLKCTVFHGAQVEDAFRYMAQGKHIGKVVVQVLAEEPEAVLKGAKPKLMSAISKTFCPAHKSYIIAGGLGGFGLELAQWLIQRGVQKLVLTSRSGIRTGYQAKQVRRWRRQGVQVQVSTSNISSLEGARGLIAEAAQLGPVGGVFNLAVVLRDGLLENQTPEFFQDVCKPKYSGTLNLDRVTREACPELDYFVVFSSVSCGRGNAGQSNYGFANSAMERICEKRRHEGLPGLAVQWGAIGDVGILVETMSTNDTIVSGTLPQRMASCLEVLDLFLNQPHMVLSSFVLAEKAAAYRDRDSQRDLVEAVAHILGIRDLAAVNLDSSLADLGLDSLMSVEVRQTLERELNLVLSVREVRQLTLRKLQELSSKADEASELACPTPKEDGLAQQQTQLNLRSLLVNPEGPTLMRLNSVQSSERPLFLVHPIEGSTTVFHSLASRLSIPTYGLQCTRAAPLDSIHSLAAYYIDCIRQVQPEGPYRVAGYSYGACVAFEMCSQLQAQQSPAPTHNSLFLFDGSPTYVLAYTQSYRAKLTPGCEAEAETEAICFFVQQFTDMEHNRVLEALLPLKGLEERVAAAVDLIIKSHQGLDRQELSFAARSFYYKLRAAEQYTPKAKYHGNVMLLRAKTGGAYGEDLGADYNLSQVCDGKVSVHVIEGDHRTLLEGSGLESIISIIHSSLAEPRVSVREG
Sequence of Adenosylmethionine-8-amino-7-oxononanoate aminotransferase (P9WQ81 whole entry): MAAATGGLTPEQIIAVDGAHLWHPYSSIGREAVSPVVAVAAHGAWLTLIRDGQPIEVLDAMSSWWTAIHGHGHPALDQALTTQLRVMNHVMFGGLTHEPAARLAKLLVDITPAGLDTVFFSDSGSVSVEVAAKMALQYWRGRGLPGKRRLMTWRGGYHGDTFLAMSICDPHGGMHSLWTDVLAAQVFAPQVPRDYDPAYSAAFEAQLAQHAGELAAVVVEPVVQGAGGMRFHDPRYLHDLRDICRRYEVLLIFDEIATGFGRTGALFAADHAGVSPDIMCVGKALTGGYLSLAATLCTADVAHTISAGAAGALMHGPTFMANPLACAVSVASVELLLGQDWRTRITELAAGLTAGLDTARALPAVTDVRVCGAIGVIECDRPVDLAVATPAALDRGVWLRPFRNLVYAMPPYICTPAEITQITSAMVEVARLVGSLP
Sequence of 5-hydroxytryptamine receptor 2A (P35363 whole entry): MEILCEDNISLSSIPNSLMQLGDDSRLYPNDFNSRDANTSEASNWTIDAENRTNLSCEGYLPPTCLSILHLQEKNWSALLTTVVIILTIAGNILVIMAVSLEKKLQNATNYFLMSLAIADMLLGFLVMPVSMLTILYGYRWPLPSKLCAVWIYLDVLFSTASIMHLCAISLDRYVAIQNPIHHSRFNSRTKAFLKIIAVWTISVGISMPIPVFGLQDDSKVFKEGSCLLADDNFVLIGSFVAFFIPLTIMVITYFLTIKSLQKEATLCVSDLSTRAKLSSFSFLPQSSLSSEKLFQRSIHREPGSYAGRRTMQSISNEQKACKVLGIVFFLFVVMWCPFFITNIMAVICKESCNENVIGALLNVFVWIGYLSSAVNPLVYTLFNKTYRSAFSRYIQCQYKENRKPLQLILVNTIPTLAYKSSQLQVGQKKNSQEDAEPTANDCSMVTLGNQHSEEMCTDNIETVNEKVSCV
Sequence of Cytochrome P450 2D6 (P10635 whole entry): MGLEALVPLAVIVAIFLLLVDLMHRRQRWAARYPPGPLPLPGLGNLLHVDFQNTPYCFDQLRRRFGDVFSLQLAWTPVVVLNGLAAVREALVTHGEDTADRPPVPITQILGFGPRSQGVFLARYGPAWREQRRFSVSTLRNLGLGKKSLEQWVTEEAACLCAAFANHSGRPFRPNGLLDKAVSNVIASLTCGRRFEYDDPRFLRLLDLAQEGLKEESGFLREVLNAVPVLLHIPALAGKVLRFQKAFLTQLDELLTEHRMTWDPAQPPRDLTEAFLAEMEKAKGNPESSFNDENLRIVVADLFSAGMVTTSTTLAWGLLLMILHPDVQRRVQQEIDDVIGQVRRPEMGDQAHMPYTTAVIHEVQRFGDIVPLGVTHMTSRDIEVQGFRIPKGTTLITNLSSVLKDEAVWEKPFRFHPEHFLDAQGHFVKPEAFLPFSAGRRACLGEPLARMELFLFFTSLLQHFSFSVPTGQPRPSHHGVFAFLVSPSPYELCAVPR
Sequence of Benomyl/methotrexate resistance protein (P28873 whole entry): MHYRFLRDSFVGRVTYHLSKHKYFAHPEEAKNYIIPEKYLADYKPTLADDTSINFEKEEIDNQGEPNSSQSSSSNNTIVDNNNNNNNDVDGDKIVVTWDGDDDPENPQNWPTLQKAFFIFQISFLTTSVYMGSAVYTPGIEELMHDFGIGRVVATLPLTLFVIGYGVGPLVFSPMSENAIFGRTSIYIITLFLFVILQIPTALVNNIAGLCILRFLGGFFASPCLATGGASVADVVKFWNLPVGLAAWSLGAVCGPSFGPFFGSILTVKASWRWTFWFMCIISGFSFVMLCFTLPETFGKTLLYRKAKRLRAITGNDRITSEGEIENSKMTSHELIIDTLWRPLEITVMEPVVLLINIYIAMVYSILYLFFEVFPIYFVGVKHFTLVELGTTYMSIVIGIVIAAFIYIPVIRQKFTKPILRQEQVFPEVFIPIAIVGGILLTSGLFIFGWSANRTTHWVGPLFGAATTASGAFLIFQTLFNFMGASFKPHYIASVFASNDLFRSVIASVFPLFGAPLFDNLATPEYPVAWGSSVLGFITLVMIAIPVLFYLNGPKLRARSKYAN
Sequence of Melanocortin receptor 4 (P32245 whole entry): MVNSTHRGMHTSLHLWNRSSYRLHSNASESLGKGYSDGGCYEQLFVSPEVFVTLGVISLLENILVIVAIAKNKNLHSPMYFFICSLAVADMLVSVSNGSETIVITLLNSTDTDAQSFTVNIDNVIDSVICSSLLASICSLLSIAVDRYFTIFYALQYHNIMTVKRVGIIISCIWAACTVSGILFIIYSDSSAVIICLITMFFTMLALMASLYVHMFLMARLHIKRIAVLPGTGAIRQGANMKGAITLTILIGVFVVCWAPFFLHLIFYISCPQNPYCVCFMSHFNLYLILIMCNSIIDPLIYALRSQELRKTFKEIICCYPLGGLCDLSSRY

For orientation: AC50 means the concentration giving half of the maximal activity seen. On to `Cc1ccc(Cc2c(C)nc3nc(SCC(=O)NCc4ccco4)nn3c2C)cc1`, for which the AC50 at Cytochrome P450 2D6 is 25.1 µM (inconclusive); in assay [1], 4.86 µM (active); at Cytochrome P450 1A2, 0.00631 µM (inconclusive); at Cytochrome P450 3A4, 3.16 µM (inconclusive).

The term EC50 denotes the concentration giving half of the maximal effect. For `O=[N+]([O-])c1ccc2ncnc(N3CCN(Cc4ccc5c(c4)OCO5)CC3)c2c1`, the IC50 at Interleukin-8 [2] is 47.9 µM (inactive); at Fatty acid synthase [7] it was 0.843 µM (active); on Fatty acid synthase [8], 1.39 µM (active); on Interleukin-8 [9], 40.4 µM (inactive). For the same molecule, the concentration at half-maximal activity (AC50) is 26.5 µM (active) in [3], 5.4 µM (active) in the assay with HEK293, 2.73 µM (active) in assay [5] and 35.6 µM (active) in assay [6]. Besides, the EC50 at Mu-type opioid receptor was 92.5 µM (inactive); in [4], 3.78 µM (active).

Turning to `COc1cccc(C2CC(c3ccccc3)=NN2S(=O)(=O)c2ccc(C)cc2)c1OC` (stereo not drawn), the EC50 in [10] is 9.58 µM (active).

As to `Cc1[nH]c(C)c(C(=O)/C=C/c2ccc([N+](=O)[O-])cc2)c1C`, the IC50 (on Melanocortin receptor 4; in [11]) was > 64.6 µM (inactive) in each case.

Consider `CCCCCOC(=O)C(C)c1c(C)nc(S)nc1O` (stereo not drawn), for which the IC50 in [12] was 115 µM (inactive).
